Reference: patent US20100221341A1, “Alanine-Based Peptide Hydrogels” (Drexel University, priority 2009, published 2010)
Ends that are not written are not given here.

Key:
Assay type in all cases: physicochemical
[1] = Hydrogel formation
Procedure: For the FT-IR (Fourier transform infrared), CD (circular dichroism), and Raman measurements of Ac-(AAKA)4-NH2, unless otherwise described, the peptide was dissolved in acidic D2O (pD=1.4) at a concentration of ˜15 mg/mL (˜10.5 mM), where the D2O was made acidic by the addition of DCl (Sigma-Aldrich). […] The measurements for the gelated state of the 12-mer, Ac-(AAKA)3-NH2, were carried out similarly, at a concentration of ˜27 mg/mL in D2O (pD=1.4). For the ECD measurements, Ac-(AAKA)3-NH2 and (AAKA)4 were dissolved in acidic D2O at concentrations of 2.4 mg/mL and 1 mg/mL, respectively, and the samples were measured at room temperature.
NaCl was added to a freshly aqueous solution of (AAKA)4, wherein the concentration of peptide was equal to or higher than 0.5 wt %. […] An example of such hydrogel is illustrated in FIG. 15.

[2] = Rheology (viscosity) of peptide solutions with NaCl
Procedure: Rheology measurements were made for solutions of (AAKA)4 (concentration of 5 mg/mL or 3.5 mM) in 0.5 M and 1.0 M NaCl, as shown in FIG. 16. […] The shear-thinning behavior observed in these experiments was consistent with other oligopeptides hydrogels (Schneider, […], J. Am. Chem. Soc. 124:15030).
Another rheology experiment is illustrated in FIG. 17, for a solution of (AAKA)4 (concentration of 5 mg/mL) in 0.0 M, 1.0 M and 2.0 M NaCl. FIG. 17 illustrates three experimental curves for each concentration of NaCl.
Yet another rheology experiment is illustrated in FIG. 18, for a 5 mg/mL and a 10 mg/mL solution of (AAKA)4 in 1 M NaCl. FIG. 18 illustrates three experimental curves for each value of concentration of peptide.
As illustrated above, (AAKA)4 was conformationally unstable upon dissolution in water, prior to the addition of salt and consequent hydrogel formation. […] This is illustrated in FIG. 19, where the viscosity of a 5 mg/mL (AAKA)4 solution comprising 2 M NaCl was compared with the viscosity of a similar peptide solution wherein NaCl was added after ˜24 hours.

[3] = UV-CD kinetics after dissolution in D2O, read at 198 nm and 215 nm
Procedure: (§1) The Raman spectra were obtained with the 442 nm (40 mW) excitation from a HeCd laser (Model IK 4601R-E, Kommon Electrics, USA) and recorded with a RM 100 Remishaw confocal microscope. The UV ECD spectra in the wavelength range of 180-250 nm of peptides were measured with a JASCO J-810 spectrapolarimeter in a 0.1 mm quartz cell with 0.05 nm resolution. Samples were placed in a nitrogen purged JASCO CD module. The temperature at the cuvette was controlled by means of a Peltier-type heating system (accuracy ±1° C.) set to 20° C. The spectra were obtained by averaging ten scans and were collected as ellipticity as a function of wavelength, and converted to units of molar absorptivities via the equation: […]
The UV-CD spectra of Ac-(AAKA)4-NH2 was acquired at various times after dissolution in deuterated water (D2O). The results are illustrated in FIG. 4. Initially a significant percentage of β-structure was observed, and in a time-dependent manner more flexible PPII-like conformations were observed.
The UV-CD kinetics of Ac-(AAKA)4-NH2, in terms of the readings at 198 nm and 215 nm as a function of time, were monitored. The results are illustrated in FIG. 5. The plots were fit to bi-exponential functions, reflecting a fast phase (˜18 minutes) and a slow phase (>300 minutes). The fast phase may reflect the kinetics of hydration/dissolution of the peptide. […]

[4] = Temperature-dependent UV-CD spectra; details: 3.5 mM in D2O, pH 2.7; intersection of two fitted straight lines
Procedure: as §1
The temperature-dependent UV-CD spectra of 3.5 mM Ac-(AAKA)4-NH2 measured at acid pH is illustrated in FIG. 8. […] The inset of FIG. 8 illustrates the change of the Δε measured at 214.5 nm as a function of temperature, reflecting the decrease of the β-sheet content with increasing temperature.
Two different modes were found in the relationship between the n-sheet content and temperature. The β-sheet content, as evaluated by Δε, […] linearly with temperatures below 300 K and remained almost constant after 350 K. The transition temperature between these two modes was around 320 K, as is defined by the intersection between the two straight lines, fitting the initial and final behaviors.

## AAKAAAKAAAKAAAKA [(AAKA)4]
[1]; 1-year-old sample, 5 mg/mL (3.5 mM)
  hydrogel formation on addition of NaCl: did not result in hydrogel formation
[1]; fresh aqueous solution, peptide equal to or higher than 0.5 wt %, final NaCl higher than 1.0 M
  hydrogel formation on addition of NaCl: rigid self-supporting hydrogel
[2]; 5 mg/mL (3.5 mM) in 0.5 M and 1.0 M NaCl
  viscosity as a function of peptide and NaCl concentration: more viscous gels
[2]; 5 mg/mL, 2 M NaCl added after ~24 hours, versus NaCl added at time zero
  viscosity of hydrogel when salt is added with delay: much less viscous and rigid hydrogel

## Ac-AAKAAAKAAAKAAAKA-NH2 [Ac-(AAKA)4-NH2]
[3]
  fast phase of UV-CD kinetics (bi-exponential fit): ~18 min
  slow phase of UV-CD kinetics (bi-exponential fit): > 300 min
[4]
  transition temperature of β-sheet content (Δε at 214.5 nm): around 320 K
[1]; ~15 mg/mL (~10.5 mM) in acidic D2O, pD 1.4
  hydrogel formation after dissolution: formed a hydrogel shortly after dissolution
